Calls of active or inactive are those of the source.
What was measured:
[1] = target: DNA dC->dU-editing enzyme APOBEC-3A (Homo sapiens, UniProt P31941); experiment: Dose Response confirmation of small molecule APOBEC3A DNA Deaminase Inhibitors via a fluorescence-based single-stranded DNA deaminase assay. [Related pubchem assays (depositor defined):AID493011, AID493024]; type: functional
Cytochrome P450 2C19 = Cytochrome P450 2C19 (Homo sapiens, UniProt P33261); experiment: Cytochrome panel assay with activity outcomes. Panel member name: p450-cyp2c19 Compounds with AC50 equal or less than 10 uM are considered active; type: functional
Cytochrome P450 2C9 = Cytochrome P450 2C9 (Homo sapiens, UniProt P11712)
[2] = target: DNA dC->dU-editing enzyme APOBEC-3G (Homo sapiens, UniProt Q9HC16); type: functional;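 note: Dose-response counterscreen measuring inhibition of APOBEC3G DNA deaminase activity, run while confirming APOBEC3A inhibitors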
Cytochrome P450 2D6 [3] = target: T1, Cytochrome P450 2D6 (Homo sapiens, UniProt P10635);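 note: CYP2D6 member of a cytochrome P450 panel assay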
[4] = luciferase reporter signal suppression in cells – H4 neuroglioma cells, luminescence, dose response (AID 1990); type: functional, cell-based
Cytochrome P450 2D6 [5] = target: T1, Cytochrome P450 2D6; remark: listed apart in the source
[6] = alpha-synuclein stem-loop luciferase translation blockers – H4 neuroglioma cells, luminescence, confirmation (AID 1988); type: functional, cell-based
[7] = Luminescence Cell-Based Dose Response HTS to Identify Inhibitors of 5'UTR Stem-Loop Driven Prion Protein mRNA Translation in H4 Neuroglioblastoma Cells. [Related pubchem assays: 1827 (Project Summary), 1813 (Primary HTS)]; type: functional
[8] = viability of PTEN-deleted HCT116 cells – cell-based, HCT116 PTEN knockout, dose response (AID 1047); type: functional;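 note: HCT116 colon tumor cells with PTEN knocked out; cells exposed to compound for 60 hours before readout; potency for loss of cell viability measured by luminescence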
[9] = MIN6 cell viability loss – mouse insulinoma, cytotoxicity control, dose response (AID 2122); type: functional;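 note: confirmatory high-throughput counterscreen run to flag cytotoxic compounds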
[10] = decrease of insulin promoter-GFP reporter – imaging, high-content screening, mouse beta cells (AID 1628); type: functional; settings: MIN6
[11] = viability of HCT116 lacking mutant beta-catenin – cell-based, human colon tumor, dose response (AID 1045); type: functional;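 note: HCT116 colon tumor cells with beta catenin knocked out; cells exposed to compound for 60 hours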
[12] = target: T2, Sentrin-specific protease 1 (Homo sapiens, UniProt Q9P0U3); experiment: Dose response confirmation of small molecule inhibitors of the catalytic domain of the SUMO protease, SENP1 in a FRET assay.; type: functional; settings: read-out: IC50_Mean
T2 sequence (Q9P0U3 whole entry): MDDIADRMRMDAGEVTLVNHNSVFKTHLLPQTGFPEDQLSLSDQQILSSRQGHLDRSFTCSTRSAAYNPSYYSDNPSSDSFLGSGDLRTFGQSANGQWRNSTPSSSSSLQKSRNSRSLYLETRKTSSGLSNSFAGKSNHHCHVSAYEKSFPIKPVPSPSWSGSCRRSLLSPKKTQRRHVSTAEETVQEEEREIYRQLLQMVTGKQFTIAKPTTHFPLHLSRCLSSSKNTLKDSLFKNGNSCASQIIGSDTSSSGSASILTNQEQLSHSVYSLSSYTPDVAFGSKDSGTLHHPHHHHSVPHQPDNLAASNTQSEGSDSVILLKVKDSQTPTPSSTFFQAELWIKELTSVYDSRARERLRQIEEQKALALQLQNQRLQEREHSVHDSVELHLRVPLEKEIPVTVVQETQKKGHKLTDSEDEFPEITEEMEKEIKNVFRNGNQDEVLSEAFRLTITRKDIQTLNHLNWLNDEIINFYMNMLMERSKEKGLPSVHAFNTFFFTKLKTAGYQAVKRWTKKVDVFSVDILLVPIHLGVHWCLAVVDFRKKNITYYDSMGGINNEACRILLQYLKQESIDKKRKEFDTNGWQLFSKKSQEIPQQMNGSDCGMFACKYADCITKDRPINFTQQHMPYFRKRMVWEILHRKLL

Large T antigen = Large T antigen (Simian virus 40, UniProt P03070); type: functional, Betapolyomavirus macacae;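 note: Confirmatory-stage PubChem screen for compounds that inhibit SV40 T antigen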
[13] = target: T3, Rac GTPase-activating protein 1 (Homo sapiens, UniProt Q9H0H5); experiment: blockers of MgcRacGAP-driven Rac1 GTP hydrolysis – biochemical, ADP Hunter fluorescence, primary and confirmatory, confirmation (AID 624330); type: functional
T3 sequence (Q9H0H5 whole entry): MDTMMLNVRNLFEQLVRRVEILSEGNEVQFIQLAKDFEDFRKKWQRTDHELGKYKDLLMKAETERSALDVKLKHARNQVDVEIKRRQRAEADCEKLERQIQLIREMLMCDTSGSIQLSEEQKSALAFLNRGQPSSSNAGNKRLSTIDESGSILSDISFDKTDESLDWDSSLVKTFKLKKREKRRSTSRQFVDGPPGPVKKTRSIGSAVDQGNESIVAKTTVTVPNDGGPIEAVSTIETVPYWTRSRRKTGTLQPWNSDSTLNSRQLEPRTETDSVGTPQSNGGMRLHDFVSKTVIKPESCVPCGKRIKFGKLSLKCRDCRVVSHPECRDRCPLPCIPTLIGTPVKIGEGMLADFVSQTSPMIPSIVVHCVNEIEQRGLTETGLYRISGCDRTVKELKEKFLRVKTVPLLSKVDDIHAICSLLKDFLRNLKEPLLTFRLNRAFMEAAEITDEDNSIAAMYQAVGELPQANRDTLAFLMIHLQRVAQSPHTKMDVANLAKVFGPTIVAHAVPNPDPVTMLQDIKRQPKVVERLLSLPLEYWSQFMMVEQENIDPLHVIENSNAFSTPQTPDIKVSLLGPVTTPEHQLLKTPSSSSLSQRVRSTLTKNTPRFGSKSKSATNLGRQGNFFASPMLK

[14] = target: T2, Sentrin-specific protease 1; experiment: SENP1 catalytic domain blockers, concentration series – biochemical, kinetic FRET, dose response (AID 651697); type: functional; settings: read-out: IC50_Mean
[15] = HepG2 cell cytotoxicity, dose response, cytotoxicity control for non-replicating M. tuberculosis project (AID 489018); type: functional; settings: Mycobacterium tuberculosis
Vero = experiment: cells; type: functional; settings: Chlorocebus sabaeus
[16] = Vero E6 cell cytotoxicity, dose response, cytotoxicity control for non-replicating M. tuberculosis project, secondary assay (AID 492998); type: functional, VeroE6; settings: Vero C1008
[17] = THP-1 cell cytotoxicity, dose response, cytotoxicity control for non-replicating M. tuberculosis project (AID 489025); type: functional
Protein RecA = target: T4, Protein RecA (Mycobacterium tuberculosis, UniProt P9WHJ3); experiment: Fluorescence Cell-Free Homogeneous Dose Retest to Identify Inhibitors of RecA-Intein Splicing Activity. [Related pubchem assays (depositor defined):AID2097, AID2223, AID489010, AID492950]; type: functional
T4 sequence (P9WHJ3 whole entry): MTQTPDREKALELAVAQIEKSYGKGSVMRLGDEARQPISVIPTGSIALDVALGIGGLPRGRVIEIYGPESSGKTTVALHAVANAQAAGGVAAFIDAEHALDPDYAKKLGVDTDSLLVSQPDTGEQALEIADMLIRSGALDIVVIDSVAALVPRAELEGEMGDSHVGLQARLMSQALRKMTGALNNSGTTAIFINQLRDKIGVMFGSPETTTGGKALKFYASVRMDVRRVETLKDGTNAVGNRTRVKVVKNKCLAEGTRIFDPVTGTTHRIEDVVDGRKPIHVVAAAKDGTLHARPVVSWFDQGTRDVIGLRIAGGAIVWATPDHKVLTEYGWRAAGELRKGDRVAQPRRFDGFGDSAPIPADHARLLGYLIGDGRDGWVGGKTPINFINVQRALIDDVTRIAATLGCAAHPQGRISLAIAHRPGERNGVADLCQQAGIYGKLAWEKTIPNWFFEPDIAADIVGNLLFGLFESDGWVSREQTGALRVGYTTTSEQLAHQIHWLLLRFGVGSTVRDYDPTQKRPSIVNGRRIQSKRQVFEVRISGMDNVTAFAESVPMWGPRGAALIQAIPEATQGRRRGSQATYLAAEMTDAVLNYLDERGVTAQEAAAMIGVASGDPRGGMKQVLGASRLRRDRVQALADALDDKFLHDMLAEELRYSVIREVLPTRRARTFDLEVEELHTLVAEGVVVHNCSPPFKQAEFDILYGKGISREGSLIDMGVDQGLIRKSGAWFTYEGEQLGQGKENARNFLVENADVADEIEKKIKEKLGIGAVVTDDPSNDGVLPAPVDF

Streptokinase A = target: T5, Streptokinase A (Streptococcus pyogenes serotype M1, UniProt P10520); experiment: viability-normalized secreted streptokinase activity reduction – plasminogen activation absorbance, OD405, dose response (AID 1914); type: functional, Streptococcus pyogenes M1 GAS;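 note: secreted streptokinase activity via plasminogen activation per viability signal from cell pellet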
T5 sequence (P10520 whole entry): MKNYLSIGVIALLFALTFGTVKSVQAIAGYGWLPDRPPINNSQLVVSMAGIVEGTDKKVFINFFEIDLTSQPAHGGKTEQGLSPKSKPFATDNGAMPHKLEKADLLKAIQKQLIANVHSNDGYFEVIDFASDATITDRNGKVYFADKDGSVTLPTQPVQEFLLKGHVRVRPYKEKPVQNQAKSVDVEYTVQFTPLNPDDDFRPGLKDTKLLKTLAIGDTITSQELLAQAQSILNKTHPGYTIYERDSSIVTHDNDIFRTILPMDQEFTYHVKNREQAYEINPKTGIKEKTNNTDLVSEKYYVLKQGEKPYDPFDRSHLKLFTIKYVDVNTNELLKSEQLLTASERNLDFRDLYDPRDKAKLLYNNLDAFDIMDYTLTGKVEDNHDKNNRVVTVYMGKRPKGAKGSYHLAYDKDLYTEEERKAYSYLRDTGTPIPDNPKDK

Streptococcus = experiment: GAS UMAA2166 growth inhibition – luminescence, BacTiterGlo, counter-screen for streptokinase expression inhibitor project, dose response (AID 1915); type: functional, organism-based;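 note: potency for reduction of bacterial viability or growth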
[18] = target: T6, Replicative DNA helicase DnaB (Mycobacterium tuberculosis, UniProt P9WMR3); experiment: DnaB intein splicing inhibitors, dose response, biochemical, cell-free fluorescence (AID 449749); type: functional
T6 sequence (P9WMR3 whole entry): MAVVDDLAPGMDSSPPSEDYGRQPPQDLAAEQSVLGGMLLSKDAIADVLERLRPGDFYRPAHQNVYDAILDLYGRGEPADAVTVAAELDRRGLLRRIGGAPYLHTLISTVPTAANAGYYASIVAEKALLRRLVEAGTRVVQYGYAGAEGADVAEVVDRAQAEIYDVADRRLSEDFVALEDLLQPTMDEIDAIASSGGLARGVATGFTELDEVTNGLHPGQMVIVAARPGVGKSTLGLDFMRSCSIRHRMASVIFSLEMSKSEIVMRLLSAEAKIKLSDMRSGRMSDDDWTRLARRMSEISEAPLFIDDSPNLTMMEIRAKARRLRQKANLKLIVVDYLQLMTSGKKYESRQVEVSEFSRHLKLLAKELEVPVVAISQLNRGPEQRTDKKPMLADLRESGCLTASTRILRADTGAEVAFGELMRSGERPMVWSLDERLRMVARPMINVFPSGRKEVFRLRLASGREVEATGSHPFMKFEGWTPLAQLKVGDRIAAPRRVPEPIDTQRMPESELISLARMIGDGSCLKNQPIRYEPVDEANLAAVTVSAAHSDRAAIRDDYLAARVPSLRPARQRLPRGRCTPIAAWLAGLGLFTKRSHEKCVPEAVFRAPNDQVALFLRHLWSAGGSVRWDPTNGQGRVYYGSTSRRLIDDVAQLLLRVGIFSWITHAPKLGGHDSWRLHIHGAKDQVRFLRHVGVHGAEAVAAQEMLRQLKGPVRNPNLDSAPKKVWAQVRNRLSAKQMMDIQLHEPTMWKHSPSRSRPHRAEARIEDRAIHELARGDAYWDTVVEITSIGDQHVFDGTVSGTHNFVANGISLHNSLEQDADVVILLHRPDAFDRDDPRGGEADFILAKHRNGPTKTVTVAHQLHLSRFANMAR

[19] = target: G-protein coupled receptor 55 (Homo sapiens, UniProt Q9Y2T6); experiment: selective activators of receptor GPR55 – imaging, U2OS cells, beta-arrestin-GFP redistribution, primary screen (AID 1961); type: functional
[20] = test system: Streptococcus sp. 'group A'; experiment: Streptococcus pyogenes SK(-)GAS viability under kanamycin – luminescence, BacTiterGlo, confirmation, counter-screen for streptokinase expression inhibitor project, dose response (AID 1900); type: functional, organism-based

T1 sequence (P10635 whole entry): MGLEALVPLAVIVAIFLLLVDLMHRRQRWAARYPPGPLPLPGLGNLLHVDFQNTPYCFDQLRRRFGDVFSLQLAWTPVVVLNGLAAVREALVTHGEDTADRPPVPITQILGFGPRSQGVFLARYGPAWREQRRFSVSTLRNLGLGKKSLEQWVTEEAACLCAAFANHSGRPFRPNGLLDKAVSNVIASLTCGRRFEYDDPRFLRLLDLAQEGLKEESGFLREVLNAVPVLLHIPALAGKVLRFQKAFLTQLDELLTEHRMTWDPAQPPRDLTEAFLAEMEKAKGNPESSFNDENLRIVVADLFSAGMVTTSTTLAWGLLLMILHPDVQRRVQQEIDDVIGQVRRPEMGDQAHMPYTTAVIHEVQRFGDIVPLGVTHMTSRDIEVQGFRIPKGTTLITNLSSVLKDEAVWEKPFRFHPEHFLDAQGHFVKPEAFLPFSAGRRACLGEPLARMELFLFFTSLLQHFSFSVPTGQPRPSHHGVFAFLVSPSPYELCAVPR
Sequence of DNA dC->dU-editing enzyme APOBEC-3G (Q9HC16 whole entry): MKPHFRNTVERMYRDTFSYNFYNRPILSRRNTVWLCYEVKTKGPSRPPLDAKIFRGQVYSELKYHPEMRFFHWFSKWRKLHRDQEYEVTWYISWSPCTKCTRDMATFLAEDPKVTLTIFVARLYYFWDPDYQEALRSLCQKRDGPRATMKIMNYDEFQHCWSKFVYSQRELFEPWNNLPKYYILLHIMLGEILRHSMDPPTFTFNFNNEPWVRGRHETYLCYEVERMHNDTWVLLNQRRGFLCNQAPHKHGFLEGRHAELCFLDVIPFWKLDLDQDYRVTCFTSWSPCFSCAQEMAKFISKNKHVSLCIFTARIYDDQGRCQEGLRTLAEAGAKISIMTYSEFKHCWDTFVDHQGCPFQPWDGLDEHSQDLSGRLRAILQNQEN
Sequence of Cytochrome P450 2C19 (P33261 whole entry): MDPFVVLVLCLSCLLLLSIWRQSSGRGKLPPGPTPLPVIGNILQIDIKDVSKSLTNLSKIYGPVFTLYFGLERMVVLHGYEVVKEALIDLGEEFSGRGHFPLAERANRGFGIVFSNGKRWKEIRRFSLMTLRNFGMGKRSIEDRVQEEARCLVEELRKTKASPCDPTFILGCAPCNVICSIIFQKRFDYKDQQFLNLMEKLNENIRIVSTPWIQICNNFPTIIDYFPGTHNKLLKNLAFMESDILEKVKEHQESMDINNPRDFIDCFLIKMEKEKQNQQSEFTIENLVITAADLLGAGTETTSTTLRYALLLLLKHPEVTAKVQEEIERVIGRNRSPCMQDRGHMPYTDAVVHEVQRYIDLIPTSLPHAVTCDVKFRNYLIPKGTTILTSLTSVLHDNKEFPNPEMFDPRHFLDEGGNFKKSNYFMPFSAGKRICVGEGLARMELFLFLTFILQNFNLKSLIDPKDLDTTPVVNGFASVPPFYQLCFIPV
Sequence of DNA dC->dU-editing enzyme APOBEC-3A (P31941 whole entry): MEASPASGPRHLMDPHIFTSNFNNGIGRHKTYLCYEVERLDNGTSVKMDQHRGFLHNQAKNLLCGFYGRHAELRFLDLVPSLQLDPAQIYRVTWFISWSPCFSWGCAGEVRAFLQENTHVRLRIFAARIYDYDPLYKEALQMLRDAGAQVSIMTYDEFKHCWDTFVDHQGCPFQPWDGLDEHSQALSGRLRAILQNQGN
Sequence of G-protein coupled receptor 55 (Q9Y2T6 whole entry): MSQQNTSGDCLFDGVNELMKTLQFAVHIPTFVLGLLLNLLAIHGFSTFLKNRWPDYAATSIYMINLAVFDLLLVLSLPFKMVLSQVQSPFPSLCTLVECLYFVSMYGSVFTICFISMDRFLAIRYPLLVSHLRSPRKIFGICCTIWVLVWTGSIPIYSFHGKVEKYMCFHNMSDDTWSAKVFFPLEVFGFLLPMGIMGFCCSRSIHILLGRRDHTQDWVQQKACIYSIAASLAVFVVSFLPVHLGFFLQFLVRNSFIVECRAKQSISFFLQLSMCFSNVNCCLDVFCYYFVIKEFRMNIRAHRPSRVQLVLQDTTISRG
Sequence of Large T antigen (P03070 whole entry): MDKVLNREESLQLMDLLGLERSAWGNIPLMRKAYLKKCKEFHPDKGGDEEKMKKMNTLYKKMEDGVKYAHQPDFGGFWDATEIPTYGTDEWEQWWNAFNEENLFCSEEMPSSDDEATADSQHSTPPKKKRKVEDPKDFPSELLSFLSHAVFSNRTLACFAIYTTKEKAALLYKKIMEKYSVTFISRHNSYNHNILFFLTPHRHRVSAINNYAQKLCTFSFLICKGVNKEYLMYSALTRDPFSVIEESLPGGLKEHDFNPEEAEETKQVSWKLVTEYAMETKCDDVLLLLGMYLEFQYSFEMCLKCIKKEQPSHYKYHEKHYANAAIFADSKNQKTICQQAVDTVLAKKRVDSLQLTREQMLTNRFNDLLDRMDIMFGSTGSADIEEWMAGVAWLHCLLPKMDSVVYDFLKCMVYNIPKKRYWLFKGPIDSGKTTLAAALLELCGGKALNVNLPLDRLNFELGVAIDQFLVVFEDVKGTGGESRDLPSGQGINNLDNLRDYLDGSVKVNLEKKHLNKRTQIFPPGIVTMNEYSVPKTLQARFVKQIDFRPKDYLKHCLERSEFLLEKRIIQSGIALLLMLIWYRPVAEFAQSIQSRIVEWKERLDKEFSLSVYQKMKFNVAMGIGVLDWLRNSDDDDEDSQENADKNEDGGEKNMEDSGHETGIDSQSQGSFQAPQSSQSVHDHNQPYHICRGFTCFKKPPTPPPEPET
Sequence of Cytochrome P450 2C9 (P11712 whole entry): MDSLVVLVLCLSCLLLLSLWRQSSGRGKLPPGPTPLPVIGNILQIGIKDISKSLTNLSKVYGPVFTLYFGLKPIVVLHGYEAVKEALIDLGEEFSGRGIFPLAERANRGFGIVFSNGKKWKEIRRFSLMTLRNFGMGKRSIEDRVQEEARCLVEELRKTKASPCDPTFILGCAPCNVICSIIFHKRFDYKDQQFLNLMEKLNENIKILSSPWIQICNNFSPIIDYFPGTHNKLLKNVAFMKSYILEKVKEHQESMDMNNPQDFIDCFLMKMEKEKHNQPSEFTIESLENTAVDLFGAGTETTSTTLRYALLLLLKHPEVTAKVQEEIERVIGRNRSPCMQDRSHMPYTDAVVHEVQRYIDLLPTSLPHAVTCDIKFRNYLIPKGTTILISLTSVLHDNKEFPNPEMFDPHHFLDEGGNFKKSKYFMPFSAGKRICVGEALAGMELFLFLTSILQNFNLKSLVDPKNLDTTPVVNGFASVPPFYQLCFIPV

C[N+](C)(C)CCN(Cc1ccc(Cl)cc1)c1ccccn1.[I-]
IC50 [1]: 2.05 µM (active) | AC50 (Cytochrome P450 2C19): inconclusive | AC50 (Cytochrome P450 2C9): inconclusive | IC50 [2]: 2.01 µM (active) | AC50 (Cytochrome P450 2D6 [3]): 0.251 µM (inconclusive)

O=C1NC(=O)N(CCC2=CCCCC2)C(=O)/C1=C\Nc1cccc(F)c1
EC50 [4]: > 120 µM (not active) | AC50 (Cytochrome P450 2D6 [5]): inconclusive | EC50 [6]: 41.4 µM (active) | EC50 [7]: > 120 µM (not active) | AC50 (Cytochrome P450 2C19; read-out: AC50): 10 µM (inconclusive)

CCC(C)NCC(=O)Nc1ccc(-c2nc3cc(NC(=O)CNC(C)CC)ccc3o2)cc1 (stereo not given)
EC50 [8]: 4.19 µM (active) | IC50 [9]: 1.66 µM (active) | IC50 [10]: 2.17 µM (active) | EC50 [11]: 2.98 µM (active)

CCOc1cc(/C=C2\N=C3CCCCCN3C2=O)ccc1O
IC50 [12]: 7.67 µM (active) | IC50 (Large T antigen): 16.9 µM (active) | IC50 [13]: 39.9 µM (active) | IC50 [14]: 9.57 µM (active)

CC/C(=C\c1oc2cc3ccccc3cc2[n+]1CC)Nc1ccccc1
CC50 [15]: > 20 µM (active) | CC50 (Vero): 18.7 µM (active) | CC50 [16]: > 20 µM (active) | CC50 [17]: 16 µM (active)

CC1C(=O)C(C)C(c2cc(Cl)ccc2O)NC1c1cc(Cl)ccc1O (stereo not given)
EC50 (Protein RecA): 8.24 µM (active) | EC50 (Streptokinase A): > 150 µM (not active) | EC50 (Streptococcus): 11.5 µM (active) | AC50 [18]: 4.77 µM (active) | EC50 [19]: > 32 µM (inactive) | EC50 [20]: 1.4 µM (active)

CCN1C(NCc2ccc(OC)cc2)=N[C@@H](c2ccccc2)C(C(=O)OC)=C1C
IC50 [1]: 4.07 µM (active) | IC50 [2]: 5.66 µM (active)

From ChEMBL document CHEMBL1201862, “PubChem BioAssay data set” (2004)
